Tests used:
morningglory = experiment: Test B pre-/postemergence herbicide test; assay type: in vivo, Ipomoea coccinea; settings: for Morningglory plant response rating: scale 0 (no effect) to 100 (complete control)
Procedure, shortened: (§1)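 Seeds were planted and treated preemergence with compounds formulated in a non-phytotoxic solvent mixture containing surfactant, while plants at the 1- to 4-leaf stage (2 to 18 cm) received postemergence sprays. Flooded paddy plants were grown to the 2-leaf stage. After 13 to 15 days in a greenhouse, injury was visually rated 0–100 against untreated controls.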

pigweed = experiment: Test B pre-/postemergence herbicide test; assay type: in vivo, Amaranthus retroflexus
Procedure, shortened: (§2)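 Response was scored visually 13 to 15 days after treatment against untreated greenhouse controls, 0 meaning no effect and 100 complete control. Formulations (solvent mixture plus surfactant) went onto soil after planting, onto foliage of 1- to 4-leaf plants, and onto 2-leaf plants in a flooded paddy set including rice and barnyardgrass.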

ducksalad = experiment: Test B flooded paddy test; assay type: in vivo, Heteranthera limosa; settings: 1000 g ai/ha, scale 0 to 100 (0 no effect, 100 complete control)
Procedure, shortened: (§3)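 Postemergence plants were sprayed with formulated test chemicals at 2 to 18 cm height (1- to 4-leaf stage); paddy species were grown to the 2-leaf stage. After 13 to 15 days in a greenhouse, injury was rated visually against untreated controls on a 0–100 scale (0 = no effect, 100 = complete control).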

Surinam grass = experiment: Test B pre-/postemergence herbicide test; assay type: in vivo, Urochloa decumbens
Procedure, shortened: as §2

[1] = tested on: small flower umbrella sedge; experiment: Test B flooded paddy test; assay type: in vivo, Cyperus difformis; settings: 1000 g ai/ha, scale 0 to 100 (0 no effect, 100 complete control)
Procedure, shortened: as §3

barnyardgrass [2] = experiment: Test B flooded paddy test; assay type: in vivo, Echinochloa crus-galli; settings: 1000 g ai/ha, scale 0 to 100 (0 no effect, 100 complete control)
Procedure, shortened: as §3

rice = experiment: Test B flooded paddy test; assay type: in vivo, Oryza sativa; settings: 1000 g ai/ha, scale 0 to 100 (0 no effect, 100 complete control)
Procedure, shortened: as §3

large crabgrass = experiment: Test B pre-/postemergence herbicide test; assay type: in vivo, Digitaria sanguinalis
Procedure, shortened: as §2

velvetleaf = experiment: Test B pre-/postemergence herbicide test; assay type: in vivo, Abutilon theophrasti
Procedure, shortened: as §2

barnyardgrass [3] = experiment: Test B pre-/postemergence herbicide test; assay type: in vivo, Echinochloa crus-galli
Procedure, shortened: as §1

cocklebur = experiment: Test B pre-/postemergence herbicide test; assay type: in vivo, Xanthium strumarium
Procedure, shortened: as §1

blackgrass = experiment: Test B postemergence herbicide test; assay type: in vivo, Alopecurus myosuroides; settings: scale 0 (no effect) to 100 (complete control)
Procedure, shortened: as §3

wild oat = experiment: Test B postemergence herbicide test; assay type: in vivo, Avena fatua; settings: scale 0 (no effect) to 100 (complete control)
Procedure, shortened: (§4)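 Each value is a visual 0–100 response rating taken against controls 13 to 15 days after treatment in the greenhouse. Plants received formulated chemical postemergence at the 1- to 4-leaf stage or, in flooded paddy, at the 2-leaf stage.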

corn = experiment: Test B pre-/postemergence herbicide test; assay type: in vivo, Zea mays
Procedure, shortened: as §2

lambsquarters = experiment: Test B pre-/postemergence herbicide test; assay type: in vivo, Chenopodium album
Procedure, shortened: as §2

wheat = experiment: Test B postemergence herbicide test; assay type: in vivo, Triticum aestivum; set-up: key to Wheat plant response rating: 0 = no effect, 100 = complete control
Procedure, shortened: as §4

[4] = 125 g ai/ha, 0 is no effect, 100 is complete control, preemergence
[5] = 125 g ai/ha, visual rating, postemergence
[6] = 125 g ai/ha, visual rating, scale 0 (no effect) to 100 (complete control), postemergence
[7] = Postemergence, 500 g ai/ha, scale 0 (no effect) to 100 (complete control)
[8] = preemergence, 125 g ai/ha, 0 to 100 scale, 0 is no effect, 100 is complete control
[9] = Postemergence, 500 g ai/ha, visual rating after 13 to 15 days, scale 0 (no effect) to 100 (complete control)
[10] = Preemergence, 500 g ai/ha, scale 0 to 100
[11] = Postemergence, 125 g ai/ha, scale 0 (no effect) to 100 (complete control)
[12] = Postemergence, 500 g ai/ha, visual rating after 13 to 15 days

Compound: CCNC(=O)c1cccc(NC(=O)c2nn(C(C)(C)C)nc2C)c1 [Compound 392]
- Plant response rating (0 to 100 scale), Morningglory (morningglory; [4]): 90
- Morningglory plant response rating (morningglory; [5]): 20
- Morningglory plant response rating (morningglory; Postemergence, 500 g ai/ha): 70
- Plant response rating (0 to 100 scale), Pigweed (pigweed; [4]): 100
- Pigweed plant response rating (pigweed; [6]): 60
- Pigweed plant response rating (pigweed; [7]): 60
- Ducksalad plant response rating (ducksalad): 80
- Plant response rating (0 to 100 scale), Surinam Grass (Surinam grass; [4]): 70
- Surinam Grass plant response rating (Surinam grass; [6]): 10
- Surinam Grass plant response rating (Surinam grass; [7]): 20
- Sedge, Umbrella plant response rating [1]: 80
- Barnyardgrass plant response rating (barnyardgrass [2]): 90
- Rice plant response rating (rice): 80
- Plant response rating (0 to 100 scale), Crabgrass, Large (large crabgrass; [4]): 100
- Crabgrass, Large plant response rating (large crabgrass; [6]): 10
- Crabgrass, Large plant response rating (large crabgrass; [7]): 20
- Plant response rating (0 to 100 scale), Velvetleaf (velvetleaf; [4]): 70
- Velvetleaf plant response rating (velvetleaf; [6]): 30
- Velvetleaf plant response rating (velvetleaf; [7]): 40
- Plant response rating (0 to 100 scale), Barnyardgrass (barnyardgrass [3]; [4]): 90
- Barnyardgrass plant response rating (barnyardgrass [3]; [6]): 10
- Barnyardgrass plant response rating (barnyardgrass [3]; [7]): 20
- Plant response rating (0 to 100 scale), Cocklebur (cocklebur; [4]): 40
- Cocklebur plant response rating (cocklebur; [6]): 20
- Cocklebur plant response rating (cocklebur; [7]): 40
- Blackgrass plant response rating (blackgrass; [5]): 20
- Blackgrass plant response rating (blackgrass; Postemergence, 500 g ai/ha): 60
- Oat, Wild plant response rating (wild oat; [5]): 0
- Oat, Wild plant response rating (wild oat; Postemergence, 500 g ai/ha): 30
- Plant response rating (0 to 100 scale), Corn (corn; [4]): 70
- Corn plant response rating (corn; [6]): 0
- Corn plant response rating (corn; [7]): 20
- Plant response rating (0 to 100 scale), Lambsquarters (lambsquarters; [4]): 100
- Lambsquarters plant response rating (lambsquarters; [6]): 70
- Lambsquarters plant response rating (lambsquarters; [7]): 90
- Wheat plant response rating (wheat; [6]): 0
- Wheat plant response rating (wheat; 500 g ai/ha, scale 0 to 100, 0 no effect, 100 complete control, preemergence): 100
- Wheat plant response rating (wheat; [7]): 10

Compound: C=Cn1nc(C(C)(C)C)cc1C(=O)Nc1cccc(C(=O)NCC)c1 [Compound 33]
- Plant response rating, Morningglory (morningglory; [8]): 10
- Plant response rating, Pigweed (pigweed; [9]): 90
- Pigweed plant response rating (pigweed; [10]): 100
- Plant response rating, Pigweed (pigweed; [8]): 100
- Ducksalad plant response rating (ducksalad; visual rating, 13 to 15 days): 90
- Plant response rating, Surinam Grass (Surinam grass; [9]): 30
- Surinam Grass plant response rating (Surinam grass; [10]): 80
- Plant response rating, Surinam Grass (Surinam grass; [8]): 30
- Sedge, Umbrella plant response rating ([1]; visual rating, 13 to 15 days): 90
- Barnyardgrass plant response rating (barnyardgrass [2]; visual rating, 13 to 15 days): 90
- Rice plant response rating (rice; visual rating, 13 to 15 days): 60
- Crabgrass, Large plant response rating (large crabgrass; [11]): 20
- Plant response rating, Crabgrass, Large (large crabgrass; [9]): 30
- Crabgrass, Large plant response rating (large crabgrass; [10]): 100
- Plant response rating, Velvetleaf (velvetleaf; [9]): 60
- Velvetleaf plant response rating (velvetleaf; [10]): 80
- Plant response rating, Velvetleaf (velvetleaf; [8]): 40
- Barnyardgrass plant response rating (barnyardgrass [3]; [11]): 20
- Plant response rating, Barnyardgrass (barnyardgrass [3]; [9]): 30
- Barnyardgrass plant response rating (barnyardgrass [3]; [10]): 90
- Cocklebur plant response rating (cocklebur; [11]): 80
- Plant response rating, Cocklebur (cocklebur; [9]): 100
- Cocklebur plant response rating (cocklebur; [10]): 30
- Blackgrass plant response rating (blackgrass; Postemergence, 125 g ai/ha): 20
- Plant response rating, Blackgrass (blackgrass; [12]): 20
- Oat, Wild plant response rating (wild oat; Postemergence, 125 g ai/ha): 10
- Plant response rating, Oat, Wild (wild oat; [12]): 10
- Corn plant response rating (corn; [10]): 30
- Lambsquarters plant response rating (lambsquarters; [11]): 90
- Plant response rating, Lambsquarters (lambsquarters; [9]): 90
- Lambsquarters plant response rating (lambsquarters; [10]): 100
- Plant response rating, Lambsquarters (lambsquarters; [8]): 100
- Plant response rating, Wheat (wheat; [9]): 30

— patent US20060069132A1, “Azolecarboxamide herbicides” (priority 2004, published 2006)
